Measurements taken from patent US9902730B2, “Compounds and compositions as toll-like receptor 7 agonists” (NOVARTIS AG, priority 2014, dated 2018).

Target: T1, human TLR7 (Homo sapiens, UniProt Q9NYK1)
T1 construct: expressed in transfected cells
T1 sequence (Q9NYK1 27-1049): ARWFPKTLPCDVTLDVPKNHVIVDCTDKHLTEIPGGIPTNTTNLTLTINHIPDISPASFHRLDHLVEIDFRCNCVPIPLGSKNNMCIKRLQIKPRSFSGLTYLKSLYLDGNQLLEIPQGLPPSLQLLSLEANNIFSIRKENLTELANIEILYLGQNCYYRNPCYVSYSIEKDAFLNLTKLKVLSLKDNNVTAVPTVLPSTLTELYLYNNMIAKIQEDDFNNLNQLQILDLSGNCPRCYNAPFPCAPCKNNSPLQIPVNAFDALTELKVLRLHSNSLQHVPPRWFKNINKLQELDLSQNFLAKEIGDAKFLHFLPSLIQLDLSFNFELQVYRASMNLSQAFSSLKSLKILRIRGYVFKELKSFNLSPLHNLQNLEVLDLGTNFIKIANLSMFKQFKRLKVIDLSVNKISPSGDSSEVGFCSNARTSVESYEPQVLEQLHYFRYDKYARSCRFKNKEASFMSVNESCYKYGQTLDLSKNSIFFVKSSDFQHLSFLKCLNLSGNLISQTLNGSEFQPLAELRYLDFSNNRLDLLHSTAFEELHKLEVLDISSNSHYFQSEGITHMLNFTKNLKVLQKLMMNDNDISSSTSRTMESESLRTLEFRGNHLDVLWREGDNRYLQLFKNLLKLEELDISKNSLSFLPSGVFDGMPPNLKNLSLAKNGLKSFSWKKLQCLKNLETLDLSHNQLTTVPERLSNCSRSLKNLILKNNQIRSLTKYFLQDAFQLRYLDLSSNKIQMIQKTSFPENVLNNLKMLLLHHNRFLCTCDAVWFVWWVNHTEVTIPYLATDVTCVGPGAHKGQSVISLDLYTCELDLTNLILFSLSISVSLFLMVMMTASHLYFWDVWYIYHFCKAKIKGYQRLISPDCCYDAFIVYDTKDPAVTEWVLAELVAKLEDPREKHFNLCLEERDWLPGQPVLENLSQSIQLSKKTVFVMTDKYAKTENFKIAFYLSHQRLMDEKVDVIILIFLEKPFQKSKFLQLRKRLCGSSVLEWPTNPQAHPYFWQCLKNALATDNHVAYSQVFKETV
Test: Reporter gene assay (HEK293 cells with human TLR7 and NF-kB-driven luciferase reporter)
Format: cell-based
Details: HEK 293 cells stably transfected with human TLR7 and NF-kB-driven luciferase reporter; 7 hours incubation; EC50 relative to activity of resiquimod set to 100%
Method: Human embryonic kidney 293 (HEK 293) cells were stably transfected with human TLR7 and an NF-kB-driven luciferase reporter vector (pNifty-Luciferase). As a control assay, normal Hek293 transfected with pNifty-Luc were used. Cells were cultured in DMEM supplemented with 2 mM L-glutamine, 10% heart inactivated FBS, 1% penicillin and streptomycin, 2 μg/ml puromycin (InvivoGen #ant-pr-5) and 5 μg/ml of blasticidin (Invitrogen #46-1120). Bright-Glo™ Luciferase assay buffer and substrate were supplied by Promega #E263B and #E264B (assay substrate and buffer respectively). 384 well clear-bottom plates were supplied by Greiner bio-one (#789163-G) and were custom bar-coded plates.
Cells were plated at 25,000 cells/well in 384-well plates in a final volume of 50 μl of media. Cells were allowed to adhere to the plates after overnight (18 hours) culture at 37° C. and 5% CO2. Serially diluted experimental and positive control compounds were then dispensed to each well and incubated for 7 hours at 37° C. and 5% CO2. Cells stimulated with DMSO alone also serve as negative controls. After the incubation, 30 μl of the pre-mix assay buffer and substrate buffer were added to each well according to manufacturer's instructions. The luminescence signal was read on a CLIPR machine with an integration time of 20 seconds per plate.
Dose response curves are generated for each compound and EC50 values were determined as the concentration that gives 50% of the maximal signal.

Row | Compound | EC50
1 | CCCCCNc1nc(N)nc2ccn(Cc3cc(-c4nnn[nH]4)ccc3OC)c12 [Example 8, 5-(2-methoxy-5-(1H-tetrazol-5-yl)benzyl)-N4-pentyl-5H-pyrrolo[3,2-d]pyrimidine-2,4-diamine] | 0.3 µM
2 | CCCCCNc1nc(N)nc2ccn(Cc3cc(/C=C/C(=O)O)ccc3OC)c12 [Example 22, (E)-3-(3-((2-amino-4-(pentylamino)-5H-pyrrolo[3,2-d]pyrimidin-5-yl)methyl)-4-methoxyphenyl)acrylic acid] | 0.7 µM
3 | CCCCCNc1nc(N)nc2ccn(Cc3cc(CC[C@@H](O)C[C@@H](O)CC(=O)O)ccc3OC)c12 [Example 18, (3R,5R)-7-(3-((2-amino-4-(pentylamino)-5H-pyrrolo[3,2-d]pyrimidin-5-yl)methyl)-4-methoxyphenyl)-3,5-dihydroxyheptanoic acid] | 0.6 µM
4 | CCCCCNc1nc(N)nc2ccn(Cc3cc(Cc4nnn(CC(=O)O)n4)ccc3OC)c12 [Example 3, 2-(5-(3-((2-amino-4-(pentylamino)-5H-pyrrolo[3,2-d]pyrimidin-5-yl)methyl)-4-methoxybenzyl)-2H-tetrazol-2-yl)acetic acid] | 0.2 µM
5 | CCCC[C@@H](CO)Nc1nc(N)nc2ccn(Cc3cc(CCC(=O)O)ccc3OC)c12 [Example 23, (S)-3-(3-((2-amino-4-((1-hydroxyhexan-2-yl)amino)-5H-pyrrolo[3,2-d]pyrimidin-5-yl)methyl)-4-methoxyphenyl)propanoic acid] | 0.4 µM
6 | CCCCCCNc1nc(N)nc2ccn(Cc3cc(-c4nnn[nH]4)ccc3OC)c12 [Example 9, N4-hexyl-5-(2-methoxy-5-(1H-tetrazol-5-yl)benzyl)-5H-pyrrolo[3,2-d]pyrimidine-2,4-diamine] | 0.8 µM
7 | CCCCCNc1nc(N)nc2ccn(Cc3cc(P(=O)(O)OC)ccc3OC)c12 [Example 20, methyl hydrogen (3-((2-amino-4-(pentylamino)-5H-pyrrolo[3,2-d]pyrimidin-5-yl)methyl)-4-methoxyphenyl)phosphonate] | 0.3 µM
8 | CCCC[C@@H](CO)Nc1nc(N)nc2ccn(Cc3cc(CC(=O)O)ccc3OC)c12 [Example 5, (S)-2-(3-((2-amino-4-((1-hydroxyhexan-2-yl)amino)-5H-pyrrolo[3,2-d]pyrimidin-5-yl)methyl)-4-methoxyphenyl)acetic acid] | 0.4 µM
9 | CCCCCNc1nc(N)nc2ccn(Cc3cc(CCC(=O)O)ccc3OC)c12 [Example 21, 3-(3-((2-amino-4-(pentylamino)-5H-pyrrolo[3,2-d]pyrimidin-5-yl)methyl)-4-methoxyphenyl)propanoic acid] | 0.4 µM
10 | CCCCCNc1nc(N)nc2ccn(Cc3ccc(-c4nnn[nH]4)cc3OC)c12 [Example 14, 5-(2-methoxy-4-(1H-tetrazol-5-yl)benzyl)-N4-pentyl-5H-pyrrolo[3,2-d]pyrimidine-2,4-diamine] | 1.4 µM
11 | CCCCCNc1nc(N)nc2ccn(Cc3cc(OCc4nnn[nH]4)ccc3OC)c12 [Example 1, 5-(5-((1H-tetrazol-5-yl)methoxy)-2-methoxybenzyl)-N4-pentyl-5H-pyrrolo[3,2-d]pyrimidine-2,4-diamine] | 0.1 µM
12 | CCCC[C@@H](CO)Nc1nc(N)nc2ccn(Cc3cc(C(C)(C)c4nnn[nH]4)ccc3OC)c12 [Example 12, (S)-2-((5-(5-(2-(1H-tetrazol-5-yl)propan-2-yl)-2-methoxybenzyl)-2-amino-5H-pyrrolo[3,2-d]pyrimidin-4-yl)amino)hexan-1-ol] | 0.2 µM
13 | CCCCCNc1nc(N)nc2ccn(Cc3cc(C(F)(F)C(=O)O)ccc3OC)c12 [Example 17, 2-(3-((2-amino-4-(pentylamino)-5H-pyrrolo[3,2-d]pyrimidin-5-yl)methyl)-4-methoxyphenyl)-2,2-difluoroacetic acid] | 0.5 µM
14 | CCCC[C@@H](CO)Nc1nc(N)nc2ccn(Cc3cc(-c4nnn[nH]4)ccc3OC)c12 [Example 10, (S)-2-((2-amino-5-(2-methoxy-5-(1H-tetrazol-5-yl)benzyl)-5H-pyrrolo[3,2-d]pyrimidin-4-yl)amino)hexan-1-ol] | 0.2 µM
15 | CCCCCNc1nc(N)nc2ccn(Cc3cc(C(C)(C)c4nnn[nH]4)ccc3OC)c12 [Example 11, 5-(5-(2-(1H-tetrazol-5-yl)propan-2-yl)-2-methoxybenzyl)-N4-pentyl-5H-pyrrolo[3,2-d]pyrimidine-2,4-diamine] | 0.1 µM
16 | CCCCCNc1nc(N)nc2ccn(Cc3cc(C(F)(F)c4nnn[nH]4)ccc3OC)c12 [Example 16, 5-(5-(difluoro(1H-tetrazol-5-yl)methyl)-2-methoxybenzyl)-N4-pentyl-5H-pyrrolo[3,2-d]pyrimidine-2,4-diamine] | 0.2 µM
17 | CCC[C@@H](CO)Nc1nc(N)nc2ccn(Cc3cc(Cc4nnn[nH]4)ccc3OC)c12 [Example 7, (S)-2-((5-(5-((1H-tetrazol-5-yl)methyl)-2-methoxybenzyl)-2-amino-5H-pyrrolo[3,2-d]pyrimidin-4-yl)amino)pentan-1-ol] | 0.8 µM
18 | CCCCCNc1nc(N)nc2ccn(Cc3ccc(OCC(=O)O)cc3OC)c12 [Example 26, 2-(4-((2-amino-4-(pentylamino)-5H-pyrrolo[3,2-d]pyrimidin-5-yl)methyl)-3-methoxyphenoxy)acetic acid] | 0.4 µM

Continued, values first:

Row | EC50 | Compound
19 | 0.05 µM | CCCCCNc1nc(N)nc2ccn(Cc3cc(CC(=O)O)ccc3OC)c12 [Example 4, 2-(3-((2-amino-4-(pentylamino)-5H-pyrrolo[3,2-d]pyrimidin-5-yl)methyl)-4-methoxyphenyl)acetic acid]
20 | 0.1 µM | CCCCCNc1nc(N)nc2ccn(Cc3cc(C(=O)O)ccc3OC)c12 [Example 13, 3-((2-amino-4-(pentylamino)-5H-pyrrolo[3,2-d]pyrimidin-5-yl)methyl)-4-methoxybenzoic acid]
21 | 0.08 µM | CCCCCNc1nc(N)nc2ccn(Cc3cc(P(=O)(O)O)ccc3OC)c12 [Example 19, (3-((2-amino-4-(pentylamino)-5H-pyrrolo[3,2-d]pyrimidin-5-yl)methyl)-4-methoxyphenyl)phosphonic acid]
22 | 0.1 µM | CCCC[C@@H](CO)Nc1nc(N)nc2ccn(Cc3cc(Cc4nnn[nH]4)ccc3OC)c12 [Example 6, (S)-2-((5-(5-((1H-tetrazol-5-yl)methyl)-2-methoxybenzyl)-2-amino-5H-pyrrolo[3,2-d]pyrimidin-4-yl)amino)hexan-1-ol]
23 | 0.08 µM | CCCCCNc1nc(N)nc2ccn(Cc3cc(CN4CCC[C@@H]4C(=O)O)ccc3OC)c12 [Example 24, (R)-1-(3-((2-amino-4-(pentylamino)-5H-pyrrolo[3,2-d]pyrimidin-5-yl)methyl)-4-methoxybenzyl)pyrrolidine-2-carboxylic acid]
24 | 0.06 µM | CCCCCNc1nc(N)nc2ccn(Cc3cc(CCc4nnn[nH]4)ccc3OC)c12 [Example 15, 5-(5-(2-(1H-tetrazol-5-yl)ethyl)-2-methoxybenzyl)-N4-pentyl-5H-pyrrolo[3,2-d]pyrimidine-2,4-diamine]
25 | 0.008 µM | CCCCCNc1nc(N)nc2ccn(Cc3ccc(CN4CCC[C@H]4C(=O)O)cc3OC)c12 [Example 25, (S)-1-(4-((2-amino-4-(pentylamino)-5H-pyrrolo[3,2-d]pyrimidin-5-yl)methyl)-3-methoxybenzyl)pyrrolidine-2-carboxylic acid]
26 | 0.05 µM | CCCCCNc1nc(N)nc2ccn(Cc3cc(Cc4nnn[nH]4)ccc3OC)c12 [Example 2, 5-(5-((1H-tetrazol-5-yl)methyl)-2-methoxybenzyl)-N4-pentyl-5H-pyrrolo[3,2-d]pyrimidine-2,4-diamine]
